Measurements as given in publication PMC9199881 (Clinical and Translational Science, 2022).

Columns and labels:
healthy subjects [1] = experiment: Safety assessment; type: in vivo, human; conditions: Part A
[2] = Plasma pharmacokinetics, Part A; type: in vivo, human; conditions: for AUC(0-t) / AUC(0-inf) / Cmax / Tmax / half-life: human, plasma, oral; for AUC(0-t): AUC0–last; for AUC(0-inf): AUC0–∞
[3] = cited from earlier work
healthy subjects [4] = experiment: Concentration-QTc; type: in vivo, human
patients with PV and ITP = conditions: rilzabrutinib 400 mg b.i.d.; cited from earlier work
[5] = tested on: rat antibody-mediated Arthus model; conditions: cited from earlier work
healthy subjects [6] = experiment: ECG by timepoint analysis and categorical outliers, Part B; type: in vivo, human
[7] = tested on: mouse immune thrombocytopenia model; conditions: cited from earlier work
[8] = Plasma pharmacokinetics, Part B; conditions: for AUC(0-inf): AUC0–∞
[9] = rilzabrutinib 100 mg + ritonavir 100 mg
[10] = 1200 mg, Mean (SD), rilzabrutinib 1200 mg single dose
[11] = 1200 mg, Median (range), rilzabrutinib 1200 mg single dose
[12] = Mean (SD), rilzabrutinib 100 mg + ritonavir 100 mg b.i.d., rilzabrutinib in plasma
[13] = Median (range), rilzabrutinib 100 mg + ritonavir 100 mg b.i.d., rilzabrutinib in plasma
[14] = rilzabrutinib 100 mg + ritonavir 100 mg vs 100 mg alone
[15] = Part B, linear model with an intercept
[16] = human, in vivo, 400 mg, Mean (SD), 400 mg single dose alone
[17] = human, in vivo, 400 mg, Median (range), 400 mg single dose alone

With `CC(C)(/C=C(\C#N)C(=O)N1CCC[C@@H](n2nc(-c3ccc(Oc4ccccc4)cc3F)c3c(N)ncnc32)C1)N1CCN(C2COC2)CC1` [Rilzabrutinib, rilzabrutinib] the “Treatment-related TEAE: Nausea, n (%)” value (healthy subjects [1]; [9]) was 0 n (%), the “Treatment-related TEAE: Orthostatic hypotension, n (%)” value (healthy subjects [1]; [9]) was 0 n (%) and the “Treatment-related TEAE: Subjects with ≥1 TEAE, n (%)” value (healthy subjects [1]; [9]) was 1 (9.1) n (%). The “Treatment-related TEAE: Vascular disorders, n (%)” value (healthy subjects [1]; [9]) was 0 n (%), the “Treatment-related TEAE: Vomiting, n (%)” value (healthy subjects [1]; [9]) was 0 n (%) and the “Treatment-related TEAE: Diarrhea, n (%)” value (healthy subjects [1]; rilzabrutinib 1200 mg) was 2 (50.0) n (%). For the same compound, the “Treatment-related TEAE: Dizziness, n (%)” value (healthy subjects [1]; rilzabrutinib 1200 mg) was 1 (25.0) n (%), the “Treatment-related TEAE: Gastrointestinal disorders, n (%)” value (healthy subjects [1]; rilzabrutinib 1200 mg) was 3 (75.0) n (%) and the “Treatment-related TEAE: Nausea, n (%)” value (healthy subjects [1]; rilzabrutinib 1200 mg) was 2 (50.0) n (%). For the same compound, the “Treatment-related TEAE: Nervous system disorders, n (%)” value (healthy subjects [1]; rilzabrutinib 1200 mg) was 1 (25.0) n (%), the “Treatment-related TEAE: Orthostatic hypotension, n (%)” value (healthy subjects [1]; rilzabrutinib 1200 mg) was 1 (25.0) n (%) and the “Treatment-related TEAE: Subjects with ≥1 TEAE, n (%)” value (healthy subjects [1]; rilzabrutinib 1200 mg) was 3 (75.0) n (%). For the same compound, the “Treatment-related TEAE: Vascular disorders, n (%)” value (healthy subjects [1]; rilzabrutinib 1200 mg) was 1 (25.0) n (%), the “Treatment-related TEAE: Vomiting, n (%)” value (healthy subjects [1]; rilzabrutinib 1200 mg) was 1 (25.0) n (%) and the tolerability (healthy subjects [1]; single dose of 100 mg) was “well tolerated”. For the same compound, the AUC(0-t) [2, 10] was 2470 ng·h/mL, the AUC(0-t) [2, 11] was 551 ng·h/mL and the AUC(0-inf) [2, 10] was 2470 ng·h/mL. The AUC(0-inf) [2, 11] was 553 ng·h/mL, the Cmax [2, 10] was 569 ng/mL and the Cmax [2, 11] was 136 ng/mL. For the same compound, the Tmax [2, 10] was 2.9 h, the Tmax [2, 11] was ~3 h and the half-life ([2]; 1200 mg, t 1/2, Mean (SD), rilzabrutinib 1200 mg single dose) was 3.1 h. The half-life ([2]; 1200 mg, t 1/2, Median (range), rilzabrutinib 1200 mg single dose) was 3.2 h, the AUC(0-t) [2, 12] was 1080 ng·h/mL and the AUC(0-t) [2, 13] was 771 ng·h/mL. For the same compound, the AUC(0-inf) [2, 12] was 1100 ng·h/mL, the AUC(0-inf) [2, 13] was 778 ng·h/mL and the Cmax [2, 12] was 223 ng/mL. For the same compound, the Cmax [2, 13] was 157 ng/mL, the Tmax [2, 12] was 2.3 h and the Tmax [2, 13] was 2.5 h. The half-life ([2]; t 1/2, Mean (SD), rilzabrutinib 100 mg + ritonavir 100 mg b.i.d., rilzabrutinib in plasma) was 4 h, the half-life ([2]; t 1/2, Median (range), rilzabrutinib 100 mg + ritonavir 100 mg b.i.d., rilzabrutinib in plasma) was 4 h and the “increase in rilzabrutinib AUC0–∞ with ritonavir over rilzabrutinib alone” value [2, 14] was 17 fold. The “increase in rilzabrutinib Cmax with ritonavir over rilzabrutinib alone” value [2, 14] was 7 fold, the “Tmax, Median (range)” value ([2]; rilzabrutinib 100 mg single dose) was 1.0 (0.5–2.0) h and the “Tmax, Median (range)” value ([2]; rilzabrutinib 1200 mg single dose) was 3.0 (1.5–4.0) h. The “accumulation after chronic multiple dosing” value ([3]; 400 mg b.i.d.) was “minimal accumulation”, the “delay of absorption by a moderate fat meal” value ([3]; healthy volunteers) was ~ 1 h and the “median time to maximum plasma concentration [Tmax]” value ([3]; single dose 50–1200 mg, healthy volunteers) was 0.5 to 2.5 h. The “mean half-life (t 1/2)” value ([3]; single dose, healthy volunteers) was 1.4 to 3.9 h, the “concentration–QTc relationship (slope)” value (healthy subjects [4]; Part B) was -0.01 ms/ng/mL and the “predicted ΔΔQTcF at the observed geometric mean Cmax” value (healthy subjects [4]; Part B, 400 mg alone) was -3.4 ms. The “estimated population slope of the C-QTc relationship” value (healthy subjects [4]; [15]) was 0.01 ms per ng/mL, the “intercept of the C-QTc relationship” value (healthy subjects [4]; [15]) was -2.0 ms and the “predicted ΔΔQTcF at the observed geometric mean Cmax” value (healthy subjects [4]; Part B, rilzabrutinib 400 mg with ritonavir) was -9.9 ms. For the same compound, the “predicted ΔΔQTcF interval at Cmax” value (healthy subjects [4]; both therapeutic and supratherapeutic dose groups) was < 0 ms, the “predicted upper bound 90% CI of QTc effect” value (healthy subjects [4]; therapeutic and supratherapeutic concentrations) was < 10 ms and the “prolonged QTcF interval among safety concerns” value (patients with PV and ITP) was “did not report prolonged QTcF interval”. For the same compound, the anti-inflammatory effects [5] was “rapid and significant anti‐inflammatory effects”, the “effect on HR” value (healthy subjects [6]; Part B) was “no effect on HR” and the “effect on cardiac conduction (PR and QRS intervals)” value (healthy subjects [6]; Part B, at the studied doses) was “no clinically relevant effect”. For the same compound, the “treatment-emergent T-wave or U-wave morphology changes” value (healthy subjects [6]; Part B, following 400 mg rilzabrutinib) was “one subject with a flat T wave at two timepoints”, the “effects on ECG parameters, including the QTc interval” value (healthy subjects [6]; therapeutic and supratherapeutic (with ritonavir) exposures) was “no clinically relevant effects” and the anti-inflammatory effects [7] was “rapid and significant anti‐inflammatory effects”. For the same compound, the “Tmax, Median (range)” value ([8]; 400 mg single dose alone) was 2.1 (0.6–4.1) h, the AUC(0-t) ([8]; human, in vivo, 400 mg, AUC0–last, Mean (SD), 400 mg single dose alone) was 455 ng·h/mL and the AUC(0-inf) [8, 16] was 454 ng·h/mL. It also gave an AUC(0-inf) [8, 17] of 312 ng·h/mL, a Cmax [8, 16] of 144 ng/mL and a Cmax [8, 17] of 102 ng/mL. It also gave a Tmax [8, 16] of 2.1 h, a Tmax [8, 17] of ~2.1 h and a half-life ([8]; human, in vivo, 400 mg, t 1/2, Mean (SD), 400 mg single dose alone) of 3.9 h. For the same compound, the half-life ([8]; human, in vivo, 400 mg, t 1/2, Median (range), 400 mg single dose alone) was 3.1 h and the “increase in rilzabrutinib Cmax with ritonavir” value ([8]; rilzabrutinib 400 mg + ritonavir 100 mg BID vs 400 mg alone) was 5 fold.
